Data reported in patent publication US9494573B2, “In vitro tumor in dish kit and method” (University of Kansas, priority 2012, dated 2016).

Tests used:
[1] = test system: human ovarian cancer epithelial cells from ascites fluid; assay: Tumor in Dish model using primary tumor cells: cancer cells; type: cell-based; conditions: TiD with primary patient cells, FIG. 5
Description: Human ovarian cancer epithelial cells were isolated from the ascites fluid of a patient and combined with normal cells as described in Example 1 to form TiD.

N.N.[Cl][Pt][Cl] [cisplatin]
killing of ovarian cancer cells from the ascites fluid [1]: killed most of the ovarian cancer cells | effect on the surrounding normal cells (normal cells in the PLiD): affected the normal cells
